PMC9570088, “Phytochemicals with Chemopreventive Activity Obtained from the Thai Medicinal Plant Mammea siamensis (Miq.) T. Anders.: Isolation and Structure Determination of New Prenylcoumarins with Inhibitory Activity against Aromatase” (International Journal of Molecular Sciences, 2022)
“Also recorded” adds a separate entry of the source. Read-outs that look alike come from different tables or passages of the source.

Key:
[1] = target: T1, human recombinant aromatase (Homo sapiens, UniProt P11511); assay: Kinetic analysis of inhibitory activity against human recombinant aromatase using Lineweaver-Burk plots (testosterone substrate, estradiol EIA); format: biochemical; settings: for mode of inhibition of aromatase: Lineweaver–Burk plots; for Ki: testosterone 0.4–4 µM as substrate, secondary plot of Lineweaver–Burk, N = 3
T1 construct: purchased BD Biosciences (Heidelberg, Germany)
T1 sequence (P11511 1-503): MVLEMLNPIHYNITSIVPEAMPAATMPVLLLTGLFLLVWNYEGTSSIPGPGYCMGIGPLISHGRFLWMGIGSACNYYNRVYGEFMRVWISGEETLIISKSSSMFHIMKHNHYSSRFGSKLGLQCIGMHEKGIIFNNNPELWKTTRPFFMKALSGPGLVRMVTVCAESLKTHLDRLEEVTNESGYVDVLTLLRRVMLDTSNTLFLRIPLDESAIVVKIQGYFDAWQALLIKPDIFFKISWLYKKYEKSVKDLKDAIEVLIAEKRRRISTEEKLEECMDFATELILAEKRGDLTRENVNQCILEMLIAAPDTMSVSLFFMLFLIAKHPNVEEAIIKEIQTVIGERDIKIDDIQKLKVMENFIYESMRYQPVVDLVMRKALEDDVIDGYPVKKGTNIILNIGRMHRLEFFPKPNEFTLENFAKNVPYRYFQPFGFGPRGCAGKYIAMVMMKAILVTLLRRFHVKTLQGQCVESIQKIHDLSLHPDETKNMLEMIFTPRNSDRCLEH
Excerpt: In the assay system, we fixed the enzyme concentration, changed the substrate concentration, and obtained the kinetic parameters of the enzyme-catalyzed reaction using Lineweaver–Burk double reciprocal plot 1/[V] vs. 1/[S]. The inhibition constant Ki indicates the potency of an inhibitor and equals the concentration required to produce half-maximal inhibition. The Ki value was obtained from the intersection of the secondary plot with the x-axis (apparent Km/Vmax vs. inhibitor).
Experiments were performed using a previously described protocol, modified by using various concentrations of testosterone (0.4–4 µM) as substrates instead of DBF and the plate was heated at 37 °C for 15 min. After the reaction, the enzyme was inactivated by heating in a boiling water bath for 2 min. An estradiol EIA kit (Oxford Biomedical Research, Inc., Oxford, MI, USA) was used to develop an estradiol standard curve to determine the concentration of estradiol produced and to correlate the concentration of estradiol with the reaction velocity. The mode of inhibition was analyzed using the Lineweaver–Burk plot of the inverse of the reaction velocity of estradiol plotted on the vertical axis and the inverse of the final concentration of the substrate on the horizontal axis, with and without the test substance (Figure S27).

[2] = target: T1, human recombinant aromatase; assay: Inhibitory effects against human recombinant aromatase (DBF fluorescence assay); format: biochemical; settings: for IC50: substrate DBF, mean, N = 3
Method: Dibenzylfluorescein (DBF) and human CYP19 + P450 reductase SUPERSOMES (human recombinant aromatase) were purchased from BD Biosciences (Heidelberg, Germany) and testosterone from Tokyo Chemical Industry Co., Ltd. (Tokyo, Japan). The other chemicals used in this study were purchased from Wako Pure Chemical Industries, Co., Ltd. (Osaka, Japan).
The experiments were performed according to a previously described method. Briefly, a test sample was dissolved in dimethyl sulfoxide (DMSO), and the solution was diluted with potassium phosphate buffer (50 mM, pH 7.4) containing MgCl2 (0.5 mM) to obtain the test sample solution (concentration of DMSO: 2%). An enzyme/substrate solution in the buffer (20 µL, 1.6 µM DBF, 8 nM human recombinant aromatase) and the test sample solution (20 µL) were mixed in a 96-well half-area black microplate (Greiner Bio-One, Frickenhausen, Germany) at 37 °C for 10 min. The enzymatic reaction was initiated by adding NADPH solution (40 µL, 500 µM) at 37 °C for 30 min. After 30 min of incubation, NaOH (30 µL, 2 mM) was added, and the reaction mixture was incubated at 37 °C for 2 h to induce fluorescent signals (final DMSO concentration, 0.5%; aromatase, 2 nM; and NADPH, 250 µM). Fluorescence was measured using a fluorescence microplate reader (SH-9000, CORONA […] Co., Ltd., Ibaraki, Japan) at an excitation wavelength of 435 nm and emission wavelength of 535 nm. Experiments were performed in triplicate, and the IC50 values were determined graphically.

[3] = target: T1, human recombinant aromatase; design: method as in PMID 27373643; settings: value marked as from earlier report; read-out: IC50 against human recombinant aromatase; cited from earlier work

Row | Ki [1] | IC50 [2] | SMILES | IC50 [3] | also measured
1 | 2.3 µM | 9.1 µM | C=C(C)c1cc2c(o1)c(C(=O)CC(C)C)c(O)c1c(-c3ccccc3)cc(=O)oc12 [compound 5, mammeasin O] | – | mode of inhibition of aromatase [1]: competitively inhibit; also recorded: competitive inhibition; also recorded: competitive inhibitors
2 | – | – | CCCC(=O)c1c(O)c2c(c3c([C@@H](O)CC)cc(=O)oc13)OC(C)(C)C=C2 [compound 35, Deacetylammea E/BC cyclo D] | 16.6 µM | –
3 | 1.3 µM | – | CC[C@H](OC(C)=O)c1cc(=O)oc2c(C(=O)CC(C)C)c(O)c(C/C=C(\C)CCC=C(C)C)c(O)c12 [compound 7, Mammeasin B] | 4.1 µM | mode of inhibition of aromatase [1]: competitive inhibition; also recorded: competitive inhibitors
4 | 11.3 µM | 23.2 µM | CCCC(=O)c1c(O)c(CC=C(C)C)c(O)c2c(C(CC)OC(C)=O)cc(=O)oc12 (centres unmarked) [compound 38, Mammea E/BC] | – | –
5 | – | – | CC[C@H](O)c1cc(=O)oc2c(C(=O)CC(C)C)c(O)c(C/C=C(\C)CCC=C(C)C)c(O)c12 [compound 18, Surangin D] | 9.8 µM | –
6 | – | 21.1 µM | CCC(OC(C)=O)c1cc(=O)oc2c(C(=O)C(C)C)c(O)c3c(c12)OC(C)(C)C=C3 (centres unmarked) [compound 34, Mammea E/BD cyclo D] | – | –
7 | 12.3 µM | 12.4 µM | CCC(C)C(=O)c1c(O)c2c(c3c([C@@H](O)CC)cc(=O)oc13)OC(C)(CCC=C(C)C)C=C2 (some centres unmarked) [compound 11, Mammeasin F] | – | –
8 | 2.8 µM | – | CC(C)=CCC/C(C)=C/Cc1c(O)c(C(=O)C(C)C)c2oc(=O)cc3c2c1OC(C)C3 (centres unmarked) [compound 8, Mammeasin C] | 2.7 µM | mode of inhibition of aromatase [1]: competitive inhibition; also recorded: competitive inhibitors
9 | 7.1 µM | 11.1 µM | CC[C@H](O)c1cc(=O)oc2c(C(=O)CC(C)C)c(O)c3c(c12)OC(C)(CCC=C(C)C)C=C3 (some centres unmarked) [compound 10, Mammeasin E] | – | –
10 | – | 20.7 µM | CCCC(=O)c1c(O)c2c(c3c(-c4ccccc4)cc(=O)oc13)OC(C)(C)C=C2 [compound 2, mammeasin L] | – | –
11 | – | – | CC[C@H](O)c1cc(=O)oc2c(CC=C(C)C)c(O)c(C(=O)CC(C)C)c(O)c12 [compound 22, Kayaessamin G] | 27.8 µM | –
12 | – | – | CC[C@H](OC(C)=O)c1cc(=O)oc2c(C(=O)CC(C)C)c(O)c(CC=C(C)C)c(O)c12 [compound 36, Mammea E/BA] | 16.6 µM | –
13 | – | 19.9 µM | CCCC(=O)c1c2c(c3oc(=O)cc(-c4ccccc4)c3c1O)CC(C(C)(C)O)O2 (centres unmarked) [compound 40, Mammea A/AC cyclo F] | – | –
14 | – | 10 µM | CCCC(=O)c1c(O)c(C/C=C(\C)CCC=C(C)C)c(O)c2c([C@@H](O)CC)cc(=O)oc12 [compound 19, Kayeassamin A] | – | –
15 | – | 19.3 µM | CC[C@H](O)c1cc(=O)oc2c3c(c(C(=O)CC(C)C)c(O)c12)OC(C)(C)C=C3 [compound 41, Deacetylammea E/AA cyclo D] | – | –
16 | – | – | CCC(C)C(=O)c1c2c(c3oc(=O)cc(-c4ccccc4)c3c1O)C=CC(C)(C)O2 (centres unmarked) [compound 29, Mammea A/AB cyclo D] | 24.1 µM | –
17 | 1.3 µM | – | CCC(C)C(=O)c1c(O)c(C/C=C(\C)CCC=C(C)C)c(O)c2c([C@H](CC)OC(C)=O)cc(=O)oc12 (some centres unmarked) [compound 16, Surangin B] | 9.8 µM | mode of inhibition of aromatase [1]: competitive inhibition; also recorded: competitive inhibitors
18 | 8.1 µM | – | CCC(C)C(=O)c1c(O)c(CC=C(C)C)c2oc(=O)cc(-c3ccccc3)c2c1O (centres unmarked) [compound 25, Mammea A/AB] | 8.6 µM | –
19 | – | – | CCC(C)C(=O)c1c(O)c(CC=C(C)C)c2oc(=O)cc([C@@H](O)CC)c2c1O (some centres unmarked) [compound 21, Kayaessamin F] | 19.7 µM | –

Row | Ki [1] | IC50 [2] | SMILES | IC50 [3] | also measured
20 | 4.3 µM | – | CCCC(=O)c1c(O)c(C/C=C(\C)CCC=C(C)C)c2c3c(cc(=O)oc13)CC(C)O2 (centres unmarked) [compound 9, Mammeasin D] | 3.6 µM | –
21 | – | – | CCCC(=O)c1c2c(c3oc(=O)cc(CCC)c3c1O)C=CC(C)(C)O2 [compound 32, Mammea B/AC cyclo D] | 24.6 µM | –
22 | – | 21.3 µM | C/C=C/c1cc(=O)oc2c(C(=O)CCC)c(O)c3c(c12)OC(C)(CCC=C(C)C)C=C3 (centres unmarked) [compound 14, Mammeasin I] | – | –
23 | 0.84 µM | – | CCCc1cc(=O)oc2c3c(c(C(=O)C(C)CC)c(O)c12)OC(C)(C)C=C3 (centres unmarked) [compound 31, Mammea B/AB cyclo D] | 3.1 µM | mode of inhibition of aromatase [1]: competitive inhibitory activity; also recorded: competitive inhibition; also recorded: competitive inhibitors
24 | 2.3 µM | – | CCCC(=O)c1c(O)c2c(c3c(C(CC)OC(C)=O)cc(=O)oc13)OC(C)(C)C=C2 (centres unmarked) [compound 33, Mammea E/BC cyclo D] | 11.5 µM | mode of inhibition of aromatase [1]: competitive inhibition; also recorded: competitive inhibitors
25 | – | 12.1 µM | CCC(C)C(=O)c1c(O)c2c(c3c([C@@H](O)CC)cc(=O)oc13)OC(C)(C)C=C2 (some centres unmarked) [compound 42, Deacetylammea E/BB cyclo D] | – | –
26 | – | 23.4 µM | CCCc1cc(=O)oc2c3c(c(C(=O)C(C)CC)c(O)c12)OC(C)(CCC=C(C)C)C=C3 (centres unmarked) [compound 15, Mammeasin J] | – | –
27 | – | 17.9 µM | CCCc1cc(=O)oc2c(C(=O)C(C)CC)c(O)c3c(c12)OC(C)(CCC=C(C)C)C=C3 (centres unmarked) [compound 13, Mammeasin H] | – | –
28 | – | – | CCC(C)C(=O)c1c(O)c(CC=C(C)C)c(O)c2c(C(CC)OC(C)=O)cc(=O)oc12 (centres unmarked) [compound 37, Mammea E/BB] | 18.6 µM | –
29 | – | – | CCCC(=O)c1c(O)c(CC=C(C)C)c2oc(=O)cc([C@@H](O)CC)c2c1O [compound 20, Kayaessamin E] | 14.9 µM | –
30 | 1.2 µM | – | CC(C)CC(=O)c1c2c(c3oc(=O)cc(-c4ccccc4)c3c1O)C=CC(C)(C)O2 [compound 28, Mammea A/AA cyclo D] | 7.2 µM | mode of inhibition of aromatase [1]: competitive inhibition; also recorded: competitive inhibitors
31 | – | 21.3 µM | CCCC(=O)c1c(O)c2c(c3c(CCC)cc(=O)oc13)OC(C)(CCC=C(C)C)C=C2 (centres unmarked) [compound 12, Mammeasin G] | – | –
32 | 5.1 µM | – | CCCC(=O)c1c(O)c(C/C=C(\C)CCC=C(C)C)c(O)c2c([C@H](CC)OC(C)=O)cc(=O)oc12 [compound 6, Mammeasin A] | 8.7 µM | –
33 | – | > 100 µM | CCCC(=O)c1c2c(c3oc(=O)cc(-c4ccccc4)c3c1O)C(OC)C(C(C)(C)O)O2 (centres unmarked) [compound 3, mammeasin M] | – | inhibition at 100 µM ([2]; 100 µM, value in parentheses): 43.4%
34 | 2.6 µM | – | CCC(C)C(=O)c1c(O)c(C/C=C(\C)CCC=C(C)C)c(O)c2c([C@@H](O)CC)cc(=O)oc12 (some centres unmarked) [compound 17, Surangin C] | 8.8 µM | mode of inhibition of aromatase [1]: competitive inhibition; also recorded: competitive inhibitors
35 | – | – | CC(C)=CCc1c(O)c(C(=O)C(C)C)c(O)c2c(-c3ccccc3)cc(=O)oc12 [compound 27, Mammea A/AD] | 11.3 µM | –
36 | – | – | CCCC(=O)c1c(O)c(CC=C(C)C)c2oc(=O)cc(-c3ccccc3)c2c1O [compound 26, Mammea A/AC] | 13.7 µM | –
37 | – | – | CCCC(=O)c1c2c(c3oc(=O)cc(-c4ccccc4)c3c1O)C=CC(C)(C)O2 [compound 30, Mammea A/AC cyclo D] | 35 µM | –

Row | SMILES | Ki [1] | IC50 [2] | IC50 [3] | also measured
38 | CC(C)=CCc1c(O)c(C(=O)CC(C)C)c(O)c2c(-c3ccccc3)cc(=O)oc12 [compound 24, Mammea A/AA] | 13.7 µM | – | 6.9 µM | –
